Measured values reported in the supplement of paper PMC10307832.

Columns and labels:
Test in all cases: relative viability (nuclei count vs DMSO), 5 days (fraction); higher = more cells survive
A-427 = tested on: A-427
Outline: (§1)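 Lung cancer cell lines were pin-tool dosed in 1536-well plates on the day after seeding, with either a lone drug or a fixed anchor-drug dose plus five library-drug doses (not always all listed) in √10 steps. Nuclei were counted on 4× images after 5 days. Relative viability is the ratio of treated-well to vehicle-well nuclei counts, with each value a median of duplicate plates.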

BEN = tested on: BEN
Outline: as §1

COR-L23 = tested on: COR-L23
Outline: as §1

EKVX = tested on: EKVX
Outline: as §1

HARA = tested on: HARA
Outline: as §1

LC-2-ad = tested on: LC-2-ad
Outline: as §1

LCLC-103H = tested on: LCLC-103H
Outline: as §1

LOU-NH91 = tested on: LOU-NH91
Outline: as §1

LU99A = tested on: LU99A
Outline: as §1

NCI-H1650 = tested on: NCI-H1650
Outline: as §1

NCI-H1666 = tested on: NCI-H1666
Outline: as §1

NCI-H1793 = tested on: NCI-H1793
Outline: as §1

NCI-H1915 = tested on: NCI-H1915
Outline: as §1

NCI-H1944 = tested on: NCI-H1944
Outline: as §1

NCI-H2087 = tested on: NCI-H2087
Outline: as §1

NCI-H2170 = tested on: NCI-H2170
Outline: as §1

NCI-H2228 = tested on: NCI-H2228
Outline: as §1

NCI-H3122 = tested on: NCI-H3122
Outline: as §1

NCI-H322M = tested on: NCI-H322M
Outline: as §1

NCI-H520 = tested on: NCI-H520
Outline: as §1

PC-14 = tested on: PC-14
Outline: as §1

PC-3 [JPC-3] = tested on: PC-3 [JPC-3]
Outline: as §1

SK-LU-1 = tested on: SK-LU-1
Outline: as §1

`C=C1C(=O)O[C@@H](CCCCCCCC)[C@@H]1C(=O)O` [C-75] + Nc1nc2[nH]cc(CCc3ccc(C(=O)N[C@@H](CCC(=O)O)C(=O)O)cc3)c2c(=O)[nH]1 [Pemetrexed] (partner 0.2 µM) gave a relative viability (A-427; first compound 0.08 µM) of 0.949, a relative viability (A-427; first compound 0.253 µM) of 0.774 and a relative viability (A-427; first compound 0.8 µM) of 0.813. The relative viability (A-427; first compound 2.53 µM) was 0.71, the relative viability (A-427; first compound 8 µM) was 0.871 and the relative viability (BEN; first compound 0.08 µM) was 0.753. It also gave a relative viability (BEN; first compound 0.253 µM) of 0.816, a relative viability (BEN; first compound 0.8 µM) of 0.688 and a relative viability (BEN; first compound 2.53 µM) of 0.842. For the same compound, the relative viability (BEN; first compound 8 µM) was 0.766, the relative viability (COR-L23; first compound 0.08 µM) was 0.197 and the relative viability (COR-L23; first compound 0.253 µM) was 0.197. For the same compound, the relative viability (COR-L23; first compound 0.8 µM) was 0.2, the relative viability (COR-L23; first compound 2.53 µM) was 0.2 and the relative viability (COR-L23; first compound 8 µM) was 0.198. For the same compound, the relative viability (EKVX; first compound 0.08 µM) was 0.45, the relative viability (EKVX; first compound 0.253 µM) was 0.491 and the relative viability (EKVX; first compound 0.8 µM) was 0.366. The relative viability (EKVX; first compound 8 µM) was 0.358, the relative viability (HARA; first compound 0.08 µM) was 0.273 and the relative viability (HARA; first compound 0.253 µM) was 0.254. It also gave a relative viability (HARA; first compound 0.8 µM) of 0.233, a relative viability (HARA; first compound 2.53 µM) of 0.222 and a relative viability (HARA; first compound 8 µM) of 0.299. The relative viability (LC-2-ad; first compound 0.08 µM) was 0.283, the relative viability (LC-2-ad; first compound 0.253 µM) was 0.265 and the relative viability (LC-2-ad; first compound 0.8 µM) was 0.285. For the same compound, the relative viability (LC-2-ad; first compound 2.53 µM) was 0.279, the relative viability (LC-2-ad; first compound 8 µM) was 0.271 and the relative viability (LCLC-103H; first compound 0.08 µM) was 0.464. The relative viability (LCLC-103H; first compound 0.253 µM) was 0.428, the relative viability (LCLC-103H; first compound 0.8 µM) was 0.458 and the relative viability (LCLC-103H; first compound 2.53 µM) was 0.326. It also gave a relative viability (LCLC-103H; first compound 8 µM) of 0.433, a relative viability (LOU-NH91; first compound 0.08 µM) of 0.308 and a relative viability (LOU-NH91; first compound 0.253 µM) of 0.362. The relative viability (LOU-NH91; first compound 0.8 µM) was 0.386, the relative viability (LOU-NH91; first compound 8 µM) was 0.378 and the relative viability (LU99A; first compound 0.08 µM) was 0.191. The relative viability (LU99A; first compound 0.253 µM) was 0.212, the relative viability (LU99A; first compound 0.8 µM) was 0.195 and the relative viability (LU99A; first compound 2.53 µM) was 0.19. The relative viability (LU99A; first compound 8 µM) was 0.21, the relative viability (NCI-H1650; first compound 0.08 µM) was 0.365 and the relative viability (NCI-H1650; first compound 0.253 µM) was 0.401. The relative viability (NCI-H1650; first compound 0.8 µM) was 0.384, the relative viability (NCI-H1650; first compound 8 µM) was 0.372 and the relative viability (NCI-H1666; first compound 0.08 µM) was 0.882. The relative viability (NCI-H1666; first compound 0.253 µM) was 0.828, the relative viability (NCI-H1666; first compound 0.8 µM) was 0.815 and the relative viability (NCI-H1666; first compound 8 µM) was 0.796. It also gave a relative viability (NCI-H1793; first compound 0.08 µM) of 0.702, a relative viability (NCI-H1793; first compound 0.253 µM) of 0.954 and a relative viability (NCI-H1793; first compound 2.53 µM) of 0.59. The relative viability (NCI-H1793; first compound 8 µM) was 0.958, the relative viability (NCI-H1915; first compound 0.08 µM) was 0.471 and the relative viability (NCI-H1915; first compound 0.253 µM) was 0.475. For the same compound, the relative viability (NCI-H1915; first compound 0.8 µM) was 0.483, the relative viability (NCI-H1915; first compound 2.53 µM) was 0.448 and the relative viability (NCI-H1915; first compound 8 µM) was 0.527. For the same compound, the relative viability (NCI-H1944; first compound 0.08 µM) was 0.645, the relative viability (NCI-H1944; first compound 0.253 µM) was 0.784 and the relative viability (NCI-H1944; first compound 0.8 µM) was 0.509. The relative viability (NCI-H1944; first compound 2.53 µM) was 0.564, the relative viability (NCI-H1944; first compound 8 µM) was 0.57 and the relative viability (NCI-H2087; first compound 0.08 µM) was 0.695. The relative viability (NCI-H2087; first compound 0.253 µM) was 0.686, the relative viability (NCI-H2087; first compound 0.8 µM) was 0.616 and the relative viability (NCI-H2087; first compound 2.53 µM) was 0.647. For the same compound, the relative viability (NCI-H2087; first compound 8 µM) was 0.574, the relative viability (NCI-H2170; first compound 0.08 µM) was 0.244 and the relative viability (NCI-H2170; first compound 0.253 µM) was 0.271. It also gave a relative viability (NCI-H2170; first compound 0.8 µM) of 0.286, a relative viability (NCI-H2170; first compound 2.53 µM) of 0.266 and a relative viability (NCI-H2170; first compound 8 µM) of 0.282. For the same compound, the relative viability (NCI-H2228; first compound 0.08 µM) was 0.33, the relative viability (NCI-H2228; first compound 0.253 µM) was 0.332 and the relative viability (NCI-H2228; first compound 0.8 µM) was 0.29. The relative viability (NCI-H2228; first compound 2.53 µM) was 0.333, the relative viability (NCI-H2228; first compound 8 µM) was 0.318 and the relative viability (NCI-H3122; first compound 0.08 µM) was 0.2. It also gave a relative viability (NCI-H3122; first compound 0.253 µM) of 0.208, a relative viability (NCI-H3122; first compound 0.8 µM) of 0.181 and a relative viability (NCI-H3122; first compound 2.53 µM) of 0.189. For the same compound, the relative viability (NCI-H3122; first compound 8 µM) was 0.185, the relative viability (NCI-H322M; first compound 0.08 µM) was 0.633 and the relative viability (NCI-H322M; first compound 0.253 µM) was 0.6. For the same compound, the relative viability (NCI-H322M; first compound 0.8 µM) was 0.575, the relative viability (NCI-H322M; first compound 8 µM) was 0.625 and the relative viability (NCI-H520; first compound 0.08 µM) was 0.62. For the same compound, the relative viability (NCI-H520; first compound 0.253 µM) was 0.669, the relative viability (NCI-H520; first compound 0.8 µM) was 0.643 and the relative viability (NCI-H520; first compound 2.53 µM) was 0.578. The relative viability (NCI-H520; first compound 8 µM) was 0.55, the relative viability (PC-14; first compound 0.08 µM) was 0.141 and the relative viability (PC-14; first compound 0.253 µM) was 0.146. It also gave a relative viability (PC-14; first compound 0.8 µM) of 0.137, a relative viability (PC-14; first compound 2.53 µM) of 0.141 and a relative viability (PC-14; first compound 8 µM) of 0.131. It also gave a relative viability (PC-3 [JPC-3]; first compound 0.08 µM) of 1.07, a relative viability (PC-3 [JPC-3]; first compound 0.253 µM) of 0.979 and a relative viability (PC-3 [JPC-3]; first compound 0.8 µM) of 0.81. It also gave a relative viability (PC-3 [JPC-3]; first compound 2.53 µM) of 0.874, a relative viability (PC-3 [JPC-3]; first compound 8 µM) of 1.14 and a relative viability (SK-LU-1; first compound 0.08 µM) of 0.984. For the same compound, the relative viability (SK-LU-1; first compound 0.253 µM) was 0.87, the relative viability (SK-LU-1; first compound 0.8 µM) was 0.845 and the relative viability (SK-LU-1; first compound 2.53 µM) was 0.866. The relative viability (SK-LU-1; first compound 8 µM) was 0.746.
